Assays:
healthy volunteers [1] = experiment: Thorough QT/QTc study: QTcF change from baseline on day 3 (12-lead ECG); assay type: in vivo, human; conditions: for QTcF change from time-matched baseline, Difference (Midostaurin – Placebo) / Upper bound of the one-sided 95% CI of Difference (Midostaurin – Placebo) in QTcF change: day 3; for QTcF change on day 3 from time-matched baseline: midostaurin arm
Text: This study was a phase I, randomized, double-blind, placebo- and active-controlled, 3-way, parallel-group study conducted at a single center in the United States and approved by the Arkansas Research Medical Testing, LLC, Institutional Review Board. The design followed the recommendations of the International Conference on Harmonisation of Technical Requirements for Registration of Pharmaceuticals for Human Use (ICH) E14 guideline on “The Clinical Evaluation of QT/QTc Interval Prolongation and Proarrhythmic Potential for Non-Antiarrhythmic Drugs” [19]. As such, the trial included a concurrent positive control group and addressed intrinsic variability by conducting multiple ECGs at baseline and during the study. The study was conducted according to the ethical principles of the Declaration of Helsinki, and written informed consent was obtained from each subject during screening.
The treatment regimen was selected to achieve maximal plasma exposure for QTc evaluation while minimizing the risks of excessive or prolonged exposure in healthy volunteers.
The baseline comparison was from day −1 to day 3 at matched time points.
The following hypothesis was tested to confirm that the study had sufficient assay sensitivity: [drawing 3] [drawing 4] where μmoxi(t) was the mean QTcF change from baseline observed following moxifloxacin 400 mg at time point t. If the null hypothesis was rejected, the study had sufficient sensitivity. The Simes method was used for the protection of an experiment-wise 5% type I error [22, 23]. With the Simes method, the original P values corresponding to 0.5, 1, 2, 3, and 4 h post baseline are ordered increasingly, that is, P 1 ≤ P 2 ≤ P 3 ≤ P 4 ≤ P 5. After the Simes correction, the P values were 5P 1, 5P 2/2, 5P 3/3, 5P 4/4, and P 5 respectively. If any of the 5 adjusted P values were <.05, assay sensitivity was claimed. Only the participants who completed all scheduled doses of study medication from day 1 to day 3 and had at least 1 ECG on day −1 (baseline) and at least 1 ECG on day 3 (time-matched day 3 data for the time-matched analysis) were included in the assay sensitivity test.
Electrocardiogram measurements at each time point were calculated as an average of 3 separate ECG extractions or replicates. (Each extraction was the mean of 3 beats.) If fewer than 3 measurements were available, the available samples were averaged (i.e., a minimum of 1 measure was required). For each subject, the time-matched baseline value was subtracted from the QT/QTc intervals to determine the change from baseline in QT/QTc intervals for that subject. The 2 null hypotheses described above were tested in a linear mixed-effect model with a compound symmetry covariance structure. The model included the baseline measure as covariate and treatment, time, and the treatment-by-time interaction as fixed effects, where time was a categorical variable and subject was a random effect.
The time-matched analysis was conducted on the QTcF change from the time-matched baseline as recommended by the ICH E14 guideline. Although modeling change from the time-matched baseline was the primary analysis, the change from the time-averaged baseline was also analyzed using the same model. For the averaged baseline, each triplicate ECG collection was averaged first, and then the averaged baseline was calculated based on all the averaged triplicate ECG and unscheduled ECGs.
(§1) Standard triplicate 12-lead ECGs were obtained at 9 time points over 24 h at baseline on day 3 and at 2 time points on day 1. Electrocardiogram analysis was performed at a blinded central reading facility (ERT, East Bridgewater, NJ) in digital format, with paper tracings obtained and archived immediately on site. Vital signs were assessed daily. Clinical laboratory parameters were assessed at baseline and at the end of study. Self-reported adverse events were continuously recorded from the first study treatment (placebo, day −1) through the end of study on day 4.

healthy volunteers [2] = experiment: Adverse events and discontinuations; assay type: in vivo, human
Protocol: as §1, with “Electrocardiogram” for “Standard triplicate 12-lead ECGs were obtained at 9 time points over 24 h at baseline on day 3 and at 2 time points on day 1. Electrocardiogram”

healthy volunteers [3] = experiment: Outlier analysis of QTc and other ECG parameters, ECG morphology; assay type: in vivo, human; conditions: for QTcB >30 ms, time-matched change from baseline, participants: text: 30- to 60-ms category
Protocol: Outlier analysis for QTc was also exploratory because this study was not powered to detect individuals with genetic sensitivity to potential QT-prolonging drugs. The nonspecific outlier criterion was a change from baseline in QTc interval of 30–60 ms.
as §1

[4] = Plasma pharmacokinetics, noncompartmental analysis; conditions: human, plasma, 75 mg; for Cmax: mean (SD)
Protocol: Blood samples for PK analysis were collected predose and 0.5, 1, 2, 3, 4, 8, 12, and 24 h post dose on days 1 and 3 at the same time as ECG assessments. […] Noncompartmental analysis (WinNonlin™ version 5.2, Pharsight, Sunnyvale, California) was performed to determine the following PK parameters: C max, T max, minimum (trough) plasma concentration over a dosing interval (C min), and AUC calculated using a trapezoidal method. For moxifloxacin, the AUC from time 0 to the last measurable concentration sampling time was calculated (AUC0–tlast).

[5] = tested on: patients with ASM, mast cell leukemia, or systemic mastocytosis; conditions: 100 mg twice daily; 26 patients; preliminary results; cited from earlier work
[6] = midostaurin, 24 h post dose on day 3

## CO[C@@H]1[C@H](N(C)C(=O)c2ccccc2)C[C@H]2O[C@]1(C)n1c3ccccc3c3c4c(c5c6ccccc6n2c5c31)C(=O)NC4 [Midostaurin, N-benzoylstaurosporin]
Healthy volunteers [1]; 0 h
  QTcF change from time-matched baseline, Difference (Midostaurin – Placebo): -2.7 ms
  Upper bound of the one-sided 95% CI of Difference (Midostaurin – Placebo) in QTcF change: 1.3 ms
  QTcF change on day 3 from time-matched baseline: -3.2 ms
Healthy volunteers [1]; 0.5 h
  QTcF change from time-matched baseline, Difference (Midostaurin – Placebo): -1.9 ms
  Upper bound of the one-sided 95% CI of Difference (Midostaurin – Placebo) in QTcF change: 2.1 ms
Healthy volunteers [1]; 1 h
  QTcF change from time-matched baseline, Difference (Midostaurin – Placebo): -3.7 ms
  Upper bound of the one-sided 95% CI of Difference (Midostaurin – Placebo) in QTcF change: 0.3 ms
Healthy volunteers [1]; 2 h
  QTcF change from time-matched baseline, Difference (Midostaurin – Placebo): -5.1 ms
  Upper bound of the one-sided 95% CI of Difference (Midostaurin – Placebo) in QTcF change: -1.1 ms
Healthy volunteers [1]; 3 h
  QTcF change from time-matched baseline, Difference (Midostaurin – Placebo): -3.9 ms
  Upper bound of the one-sided 95% CI of Difference (Midostaurin – Placebo) in QTcF change: 0.1 ms
Healthy volunteers [1]; 4 h
  QTcF change from time-matched baseline, Difference (Midostaurin – Placebo): -3.4 ms
  Upper bound of the one-sided 95% CI of Difference (Midostaurin – Placebo) in QTcF change: 0.6 ms
Healthy volunteers [1]; 8 h
  QTcF change from time-matched baseline, Difference (Midostaurin – Placebo): -0.7 ms
  Upper bound of the one-sided 95% CI of Difference (Midostaurin – Placebo) in QTcF change: 3.3 ms
Healthy volunteers [1]; 12 h
  QTcF change from time-matched baseline, Difference (Midostaurin – Placebo): -0.6 ms
  Upper bound of the one-sided 95% CI of Difference (Midostaurin – Placebo) in QTcF change: 3.4 ms
Healthy volunteers [1]; 24 h
  QTcF change from time-matched baseline, Difference (Midostaurin – Placebo): 0.7 ms
  Upper bound of the one-sided 95% CI of Difference (Midostaurin – Placebo) in QTcF change: 4.7 ms
Healthy volunteers [1]; midostaurin 75 mg twice daily days 1-2, once day 3, 24 h post dose on day 3, ECG set
  maximum mean QTcF change from time-matched baseline compared with placebo: 0.7 ms
Healthy volunteers [1]; 0.5 h after administration
  QTcF change on day 3 from time-matched baseline: -5.2 ms
Healthy volunteers [1]; 1 h after administration
  QTcF change on day 3 from time-matched baseline: -6.3 ms
Healthy volunteers [1]; 2 h after administration
  QTcF change on day 3 from time-matched baseline: -6.2 ms
Healthy volunteers [1]; 3 h after administration
  QTcF change on day 3 from time-matched baseline: -5.2 ms
Healthy volunteers [1]; 4 h after administration
  QTcF change on day 3 from time-matched baseline: -6.4 ms
Healthy volunteers [1]; 8 h after administration
  QTcF change on day 3 from time-matched baseline: -1.9 ms
Healthy volunteers [1]; 12 h after administration
  QTcF change on day 3 from time-matched baseline: -3.1 ms
Healthy volunteers [1]; 24 h after administration
  QTcF change on day 3 from time-matched baseline: -3.9 ms
Healthy volunteers [1]; [6]
  highest upper bound of 95% CI, QTcF change from time-averaged baseline compared with placebo: 4.9 ms
  maximum mean QTcF change from time-averaged baseline compared with placebo: 2.5 ms
Healthy volunteers [2]; human, in vivo
  Abdominal pain: 4 (5.1) no. (%)
  Arthralgia: 0 (0.0) no. (%)
  Diarrhea: 25 (31.6) no. (%)
  Discontinued, main cause Adverse event(s): 19 (23.8) no. (%)
  Dizziness: 0 (0.0) no. (%)
  Dry mouth: 0 (0.0) no. (%)
  Dysmenorrhea: 1 (1.3) no. (%)
  Dyspepsia: 1 (1.3) no. (%)
  Eructation: 3 (3.8) no. (%)
  Flatulence: 3 (3.8) no. (%)
  Flushing: 2 (2.5) no. (%)
  Headache: 5 (6.3) no. (%)
  Hiccups: 2 (2.5) no. (%)
  Hot flushes: 1 (1.3) no. (%)
  Nausea: 30 (38.0) no. (%)
  Pollakiuria: 0 (0.0) no. (%)
  Rash: 0 (0.0) no. (%)
  Salivary hypersecretion: 2 (2.5) no. (%)
  Sexually transmitted disease: 1 (1.3) no. (%)
  Tachycardia: 2 (2.5) no. (%)
  Vomiting: 19 (24.1) no. (%)
Healthy volunteers [2]; human, in vivo, 4 day
  Participants with adverse events: 43 (54.4) no. (%)
Healthy volunteers [2]; midostaurin arm, vomiting within 4 h of dosing
  discontinuations because of gastrointestinal events of vomiting: 17 n
Healthy volunteers [2]; randomized set
  Discontinued, main cause Adverse event(s): 19 no. (%)
  Discontinued, main cause Death: 0 (0.0) no. (%)
Healthy volunteers [3]; 12-lead ECG
  new U-wave abnormalities: No new U-wave abnormalities
  new post baseline T-wave abnormalities: Three
Healthy volunteers [3]; midostaurin 75 mg twice daily
  effects on heart rate, atrioventricular conduction, cardiac depolarization (PR and QRS interval durations): no effects on heart rate, atrioventricular conduction, or cardiac depolarization
Healthy volunteers [3]; safety set
  PR increase ≥25% and resultant PR >200 ms, participants: 0 no. (%)
  QRS increase ≥25% and resultant QRS >100 ms, participants: 0 no. (%)
  QTcB >60 ms, time-matched change from baseline, participants: 0 no. (%)
  QTcF >30 ms, time-matched change from baseline, participants: 0 no. (%)
  QTcF >60 ms, time-matched change from baseline, participants: 0 no. (%)
  QTcI >30 ms, time-matched change from baseline, participants: 0 no. (%)
  QTcI >60 ms, time-matched change from baseline, participants: 0 no. (%)
  RR decrease ≥25% and resultant RR <600 ms, participants: 1 (1.3) no. (%)
  RR increase ≥25% and resultant RR >1,200 ms, participants: 1 (1.3) no. (%)
  QTcB >30 ms, time-matched change from baseline, participants: 1 (1.3) no. (%)
Healthy volunteers [3]; safety set, post baseline
  QTcF New >450 ms, participants: 0 no. (%)
Healthy volunteers [3]; safety set, post baseline, text: between 450 and 480 ms
  QTcB New >450 ms, participants: 1 (1.3%) no. (%)
Healthy volunteers [3]; safety set, listed as midostaurin
  QTcB >30 ms, time-matched change from baseline, participants: 1 (1.3%) no. (%)
[4]; oral, time of peak concentrations post dose, midostaurin dosing, days 1 and 3
  Tmax: 1 h
[4]; po, Day 1 (single dose), midostaurin 75 mg oral
  Cmax: 2140 ng/mL
[4]; po, Day 3 (twice daily), midostaurin 75 mg oral
  Cmax: 2270 ng/mL
[4]; po, Tmax, median (range), Day 1 (single dose), midostaurin 75 mg oral
  Tmax: 1 h
[4]; po, Tmax, median (range), Day 3 (twice daily), midostaurin 75 mg oral
  Tmax: 1.1 h
[5]
  overall response rate: 69%

Source: paper PMC3337405 (Cancer Chemotherapy and Pharmacology, 2012)
